# Source: US9980943B2, “Methods of treating muscular dystrophy” (BOARD OF REGENTS OF THE NEVADA SYSTEM OF HIGHER EDUCATION, …, priority 2013, dated 2018)
# Key:
# Format in all cases: cell-based, mouse
# [1] = system: β-galactosidase in CMV-LacZ C2C12 myoblasts; experiment: CMV-LacZ secondary screen in C2C12 myoblasts (β-Gal stabilizing assay); conditions: for CMV-LACZ in Myoblasts, value relative to DMSO: SU9516 analogs, C2C12 CMV-LacZ, N=2; for CMV-LACZ in Myoblasts (β-galactosidase activity relative to DMSO): CMV-LacZ C2C12 myoblasts
# Procedure, shortened: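 A secondary screen identifies compounds that stabilize β-gal independently of the native promoter, using CMV-LacZ C2C12 cells. Curves span 0.5–40 μM at six levels, in duplicate.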
# [2] = system: α7 integrin (LacZ reporter in α7βgal+/− myoblasts); experiment: Myoblast α7+/LacZ integrin FDG assay (Burkin assay in myoblasts, 96-well); conditions: 96-well; for Burkin Assay in Myoblasts, value relative to DMSO: SU9516 analogs, N=3-6; for Burkin Assay in Myoblasts, signal relative to DMSO: α7+/LacZ myoblasts
# [3] = system: β-galactosidase in CMV-LacZ C2C12 myotubes; experiment: CMV-LacZ secondary screen in C2C12 myotubes (β-Gal stabilizing assay); conditions: for CMV-LACZ in Myotubes, value relative to DMSO: SU9516 analogs, C2C12 CMV-LacZ, N=2; for CMV-LACZ in Myotubes, signal relative to DMSO: C2C12 CMV-LacZ myotubes, fold relative to DMSO
# Procedure, shortened: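 First, C2C12 myoblasts were transfected with a linearized CMV-LACZ vector and clonal lines selected by FDG β-gal assay. Then cells were exposed to compounds at 0.5, 1, 5, 10, 20 and 40 μM in 96-well format, two replicates each, and β-gal measured.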
# [4] = system: α7 integrin (LacZ reporter in α7+/LacZ myotubes); experiment: Myotube α7 integrin FDG assay (Burkin assay in myotubes, 96-well); conditions: for Burkin Assay in Myotubes, value relative to DMSO: SU9516 analogs, 96-well, N=3-6
smiles,measurement,setting,value
O=Nc1c(-c2c(O)[nH]c3ccccc23)[nH]c2ccccc12 [NCGC00015545-02],"CMV-LACZ in Myoblasts, value relative to DMSO",[1]; 0.5 uM,1.0179
same,"CMV-LACZ in Myoblasts, value relative to DMSO",[1]; 5 uM,0.9440
same,"CMV-LACZ in Myoblasts, value relative to DMSO",[1]; 10 uM,0.8475
same,"CMV-LACZ in Myoblasts, value relative to DMSO",[1]; 20 uM,0.2907
same,"CMV-LACZ in Myoblasts, value relative to DMSO",[1]; 40 uM,0.2480
same,"Burkin Assay in Myoblasts, value relative to DMSO",[2]; 0.5 uM,1.175
same,"Burkin Assay in Myoblasts, value relative to DMSO",[2]; 1 uM,1.325
same,"Burkin Assay in Myoblasts, value relative to DMSO",[2]; 5 uM,0.596
same,"Burkin Assay in Myoblasts, value relative to DMSO",[2]; 10 uM,0.319
same,"Burkin Assay in Myoblasts, value relative to DMSO",[2]; 20 uM,0.3086
same,"Burkin Assay in Myoblasts, value relative to DMSO",[2]; 40 uM,0.1824
same,"CMV-LACZ in Myotubes, value relative to DMSO",[3]; 0.5 uM,0.8627
same,"CMV-LACZ in Myotubes, value relative to DMSO",[3]; 1 uM,0.9536
same,"CMV-LACZ in Myotubes, value relative to DMSO",[3]; 5 uM,0.7586
same,"CMV-LACZ in Myotubes, value relative to DMSO",[3]; 10 uM,0.5058
same,"CMV-LACZ in Myotubes, value relative to DMSO",[3]; 20 uM,0.5490
same,"CMV-LACZ in Myotubes, value relative to DMSO",[3]; 40 uM,0.4770
same,"Burkin Assay in Myotubes, value relative to DMSO",[4]; 0.5 uM,0.913
same,"Burkin Assay in Myotubes, value relative to DMSO",[4]; 1 uM,0.9118
same,"Burkin Assay in Myotubes, value relative to DMSO",[4]; 5 uM,0.6921
same,"Burkin Assay in Myotubes, value relative to DMSO",[4]; 10 uM,0.5516
same,"Burkin Assay in Myotubes, value relative to DMSO",[4]; 20 uM,0.4959
same,"Burkin Assay in Myotubes, value relative to DMSO",[4]; 40 uM,0.3519
COc1ccc(CNC(=O)C2CCCN(S(=O)(=O)c3c(C)noc3/C=C/N(C)C)C2)cc1 (centres unmarked) [MLS000925023-01],CMV-LACZ in Myoblasts (β-galactosidase activity relative to DMSO),[1]; 0.5 uM,1.0703
same,CMV-LACZ in Myoblasts (β-galactosidase activity relative to DMSO),[1]; 1 uM,0.9629
same,CMV-LACZ in Myoblasts (β-galactosidase activity relative to DMSO),[1]; 5 uM,0.9762
same,CMV-LACZ in Myoblasts (β-galactosidase activity relative to DMSO),[1]; 10 uM,0.8397
same,CMV-LACZ in Myoblasts (β-galactosidase activity relative to DMSO),[1]; 20 uM,0.5504
same,CMV-LACZ in Myoblasts (β-galactosidase activity relative to DMSO),[1]; 40 uM,0.3278
same,"Burkin Assay in Myoblasts, signal relative to DMSO",[2]; 0.5 uM,0.996
same,"Burkin Assay in Myoblasts, signal relative to DMSO",[2]; 1 uM,1.035
same,"Burkin Assay in Myoblasts, signal relative to DMSO",[2]; 5 uM,0.9523
same,"Burkin Assay in Myoblasts, signal relative to DMSO",[2]; 10 uM,0.7957
same,"Burkin Assay in Myoblasts, signal relative to DMSO",[2]; 20 uM,0.7765
same,"Burkin Assay in Myoblasts, signal relative to DMSO",[2]; 40 uM,0.4179
same,"CMV-LACZ in Myotubes, signal relative to DMSO",[3]; 0.5 uM,0.7505
same,"CMV-LACZ in Myotubes, signal relative to DMSO",[3]; 1 uM,1.1333
same,"CMV-LACZ in Myotubes, signal relative to DMSO",[3]; 5 uM,1.1638
same,"CMV-LACZ in Myotubes, signal relative to DMSO",[3]; 10 uM,0.8859
same,"CMV-LACZ in Myotubes, signal relative to DMSO",[3]; 20 uM,1.1565
same,"CMV-LACZ in Myotubes, signal relative to DMSO",[3]; 40 uM,1.1106
same,"Burkin Assay in Myotubes, α7 integrin LacZ reporter signal relative to DMSO",[4]; 0.5 uM,1.16
same,"Burkin Assay in Myotubes, α7 integrin LacZ reporter signal relative to DMSO",[4]; 1 uM,1.24
same,"Burkin Assay in Myotubes, α7 integrin LacZ reporter signal relative to DMSO",[4]; 5 uM,0.8969
same,"Burkin Assay in Myotubes, α7 integrin LacZ reporter signal relative to DMSO",[4]; 10 uM,0.8784
same,"Burkin Assay in Myotubes, α7 integrin LacZ reporter signal relative to DMSO",[4]; 20 uM,0.8004
same,"Burkin Assay in Myotubes, α7 integrin LacZ reporter signal relative to DMSO",[4]; 40 uM,0.7318
CC(C)Oc1cccc(C(=O)Nc2ccc(CN3CCOCC3)cc2)c1 [MLS000062431-01],CMV-LACZ in Myoblasts (β-galactosidase activity relative to DMSO),[1]; 0.5 uM,0.9557
same,CMV-LACZ in Myoblasts (β-galactosidase activity relative to DMSO),[1]; 1 uM,1.1631
same,CMV-LACZ in Myoblasts (β-galactosidase activity relative to DMSO),[1]; 5 uM,0.9848
same,CMV-LACZ in Myoblasts (β-galactosidase activity relative to DMSO),[1]; 10 uM,1.1632
same,CMV-LACZ in Myoblasts (β-galactosidase activity relative to DMSO),[1]; 20 uM,1.0467
same,CMV-LACZ in Myoblasts (β-galactosidase activity relative to DMSO),[1]; 40 uM,1.0993
same,"Burkin Assay in Myoblasts, signal relative to DMSO",[2]; 0.5 uM,0.9542
same,"Burkin Assay in Myoblasts, signal relative to DMSO",[2]; 1 uM,0.9582
same,"Burkin Assay in Myoblasts, signal relative to DMSO",[2]; 5 uM,1.016
same,"Burkin Assay in Myoblasts, signal relative to DMSO",[2]; 10 uM,1.209
same,"Burkin Assay in Myoblasts, signal relative to DMSO",[2]; 20 uM,1.789
same,"Burkin Assay in Myoblasts, signal relative to DMSO",[2]; 40 uM,0.9038
same,"CMV-LACZ in Myotubes, signal relative to DMSO",[3]; 0.5 uM,0.9133
same,"CMV-LACZ in Myotubes, signal relative to DMSO",[3]; 1 uM,0.9743
same,"CMV-LACZ in Myotubes, signal relative to DMSO",[3]; 5 uM,0.9004
same,"CMV-LACZ in Myotubes, signal relative to DMSO",[3]; 10 uM,0.9690
same,"CMV-LACZ in Myotubes, signal relative to DMSO",[3]; 20 uM,0.8812
same,"CMV-LACZ in Myotubes, signal relative to DMSO",[3]; 40 uM,1.2047
same,"Burkin Assay in Myotubes, α7 integrin LacZ reporter signal relative to DMSO",[4]; 0.5 uM,0.9571
same,"Burkin Assay in Myotubes, α7 integrin LacZ reporter signal relative to DMSO",[4]; 1 uM,0.8415
same,"Burkin Assay in Myotubes, α7 integrin LacZ reporter signal relative to DMSO",[4]; 5 uM,1.178
same,"Burkin Assay in Myotubes, α7 integrin LacZ reporter signal relative to DMSO",[4]; 10 uM,1.1989
same,"Burkin Assay in Myotubes, α7 integrin LacZ reporter signal relative to DMSO",[4]; 20 uM,0.7643
same,"Burkin Assay in Myotubes, α7 integrin LacZ reporter signal relative to DMSO",[4]; 40 uM,0.8841
COc1ccccc1C(=O)OCc1ccc2sc(C)nc2c1 [MLS001006798-01],CMV-LACZ in Myoblasts (β-galactosidase activity relative to DMSO),[1]; 0.5 uM,0.8334
same,CMV-LACZ in Myoblasts (β-galactosidase activity relative to DMSO),[1]; 1 uM,1.0326
same,CMV-LACZ in Myoblasts (β-galactosidase activity relative to DMSO),[1]; 5 uM,1.1509
same,CMV-LACZ in Myoblasts (β-galactosidase activity relative to DMSO),[1]; 10 uM,1.0189
same,CMV-LACZ in Myoblasts (β-galactosidase activity relative to DMSO),[1]; 20 uM,0.9622
same,CMV-LACZ in Myoblasts (β-galactosidase activity relative to DMSO),[1]; 40 uM,0.8263
same,"Burkin Assay in Myoblasts, signal relative to DMSO",[2]; 0.5 uM,1.191
same,"Burkin Assay in Myoblasts, signal relative to DMSO",[2]; 1 uM,0.9282
same,"Burkin Assay in Myoblasts, signal relative to DMSO",[2]; 5 uM,1.133
same,"Burkin Assay in Myoblasts, signal relative to DMSO",[2]; 10 uM,1.008
same,"Burkin Assay in Myoblasts, signal relative to DMSO",[2]; 20 uM,1.118
same,"Burkin Assay in Myoblasts, signal relative to DMSO",[2]; 40 uM,1.016
same,"CMV-LACZ in Myotubes, signal relative to DMSO",[3]; 0.5 uM,1.0419
same,"CMV-LACZ in Myotubes, signal relative to DMSO",[3]; 1 uM,0.9648
same,"CMV-LACZ in Myotubes, signal relative to DMSO",[3]; 5 uM,1.2236
same,"CMV-LACZ in Myotubes, signal relative to DMSO",[3]; 10 uM,1.0267
same,"CMV-LACZ in Myotubes, signal relative to DMSO",[3]; 20 uM,0.9953
same,"CMV-LACZ in Myotubes, signal relative to DMSO",[3]; 40 uM,1.0976
same,"Burkin Assay in Myotubes, α7 integrin LacZ reporter signal relative to DMSO",[4]; 0.5 uM,0.9345
same,"Burkin Assay in Myotubes, α7 integrin LacZ reporter signal relative to DMSO",[4]; 1 uM,1.042
same,"Burkin Assay in Myotubes, α7 integrin LacZ reporter signal relative to DMSO",[4]; 5 uM,1.06
same,"Burkin Assay in Myotubes, α7 integrin LacZ reporter signal relative to DMSO",[4]; 10 uM,0.8906
same,"Burkin Assay in Myotubes, α7 integrin LacZ reporter signal relative to DMSO",[4]; 20 uM,0.9746
same,"Burkin Assay in Myotubes, α7 integrin LacZ reporter signal relative to DMSO",[4]; 40 uM,0.8886
